SMILES strings stand for the structures.

One experiment deals with T1, mPGES-1 Mouse enzyme (Mus musculus, UniProt Q9JM51).
T1 construct: made in house; host or cells: FreeStyle 293-F cells, crude microsomal preparation
T1 sequence (Q9JM51 1-153): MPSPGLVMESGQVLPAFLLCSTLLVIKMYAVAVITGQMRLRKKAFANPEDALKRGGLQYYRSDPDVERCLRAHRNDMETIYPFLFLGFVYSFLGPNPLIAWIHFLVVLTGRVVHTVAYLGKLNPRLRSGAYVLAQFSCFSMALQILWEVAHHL
The experiment can be described thus: mPGES-1 enzyme activity assay (PGE2 enzyme immunoassay), mouse enzyme. The format is biochemical. The note with it: IC50 against mPGES-1, Mouse enzyme, recombinant microsomal enzyme; means ± SD, triplicate. As for the experimental part:
Studies were conducted to characterize the inhibitory activity against recombinant mPGES-1 of the compounds synthesized in accordance with Examples 1-4, and disclosed herein.
Briefly, FreeStyle 293-F cells were cultured following manufacturer's manual in FreeStyle 293 expression medium on orbit rotate shaker in 8% CO2 incubator at 37° C. Cells were transfected with 1.5 μg/mL of mPGES-1/pcDNA3 construct using FreeStyle Max reagent at a cell density of 1×10^6 for 2 days. Transfected cells were collected, washed, and sonicated in TSES buffer (15 mM Tris-HCl, pH 8.0 plus 0.25 M sucrose, 0.1 mM EDTA and 1 mM DTT) on ice. The broken cells were first centrifuged at 12,500×g for 10 min. The supernatant was further centrifuged at 105,000×g for 1 hr at 4° C. The pellet was washed and homogenized in PBS buffer. The crude microsomal mPGES-1 preparation was aliquoted and stored at −80° C. The crude protein concentration was 8 mg/mL.
The enzyme activity assays were performed on ice in 1.5 ml microfuge tubes by using the expressed mPGES-1. The reaction mixture contained: 0.2 M Na2HPO4/NaH2PO4, pH 7.2, 10 μL; 0.1 M GSH, 2.5 μL; diluted microsomal enzyme (80 μg/mL), 1 μL; PGH2 (0.31 mM in DMF), 5 μL; 1 μL inhibitor; and H2O in a final reaction volume of 100 μL. PGH2 was stored in dry ice and used to initiate the reaction.
Compounds were incubated with the enzyme for 15 min at room temperature before the addition of cold PGH2 (1 μM final) to initiate the enzyme reaction. After 30 s, 10 μL of SnCl2 (40 mg/mL) in ethanol was added to stop the reaction. The nonenzymatic conversion of PGH2 to PGE2 was performed in the same buffer devoid of enzyme. The reaction mixture was placed on ice until PGE2 production was determined by the PGE2 enzyme immunoassay as described earlier. IC50 values of the inhibitors were calculated by using the GraphPad Prism 4.0 program. The results are set forth in the tables provided in Examples 7-10.
In the case of `COc1cc(C=C2C(=O)NC(=O)NC2=O)cc(Br)c1OCCCCC1CCCCC1` [Compound I-10], the IC50 came out at 0.292 ± 0.047 µM.
With `CCOc1cc(C=C2C(=O)NC(=O)NC2=O)ccc1OCCCCC1CCCCC1` [Compound I-07], the IC50 was determined as 2.41 ± 0.339 µM.
Same read-out and setting: with `CCCCCCCCOc1ccc(-c2nn(-c3ccc(Cl)cc3)cc2C=C2C(=O)NC(=O)NC2=O)cc1` [VI-06] the figure was 0.74 ± 0.108 µM; with `O=C1NC(=O)C(=Cc2cc(I)ccc2OCCCCC2CCCCC2)C(=O)N1` [Compound I-15], 12.1 ± 1.96 µM; with `CCCCCCOc1ccc(-c2nn(-c3ccc(Cl)cc3)cc2C=C2C(=O)NC(=S)NC2=O)cc1` [VI-13], 1.77 ± 1.16 µM.
Same read-out and setting: as for `CCCCOc1ccc(-c2nn(-c3ccccc3)cc2C=C2C(=O)NC(=S)NC2=O)cc1` [VI-11], the figure is 1.26 ± 0.138 µM; as for `CCCCOc1ccc(-c2nn(-c3ccccc3)cc2C=C2C(=O)NC(=O)NC2=O)cc1` [VI-02], 2.57 ± 0.628 µM; as for `CCCCCOc1ccc(C=C2C(=O)NC(=O)NC2=O)cc1[N+](=O)[O-]` [Compound I-39], 6.31 ± 1.14 µM.
Same read-out and setting: as for `CCCCCCCCOc1ccc(-c2nn(-c3ccccc3)cc2C=C2C(=O)NC(=S)NC2=O)cc1` [VI-14], the figure is 1.13 ± 0.131 µM.
Consider `O=C1NC(=O)C(Cc2ccc(OCCCCC3CCCCC3)c(Cl)c2)C(=O)N1` [Compound I-42], for which the IC50 was determined as 1.33 ± 0.151 µM.
As for `O=C1NC(=O)C(=Cc2ccc(OCCCCC3CCCCC3)c(O)c2)C(=O)N1` [Compound I-05], the IC50 was determined as 2.9 ± 0.293 µM.
On the same count and under the same terms, as for `O=C1NC(=O)C(=Cc2ccc(OCCCC3CCCCC3)c([N+](=O)[O-])c2)C(=O)N1` [Compound I-32], the figure is 0.428 ± 0.058 µM; as for `COc1ccc(C=C2C(=O)NC(=O)NC2=O)cc1OCCCCC1CCCCC1` [Compound I-12], 0.727 ± 0.109 µM.
In the case of `O=C1NC(=O)C(=Cc2c(OCCCCC3CCCCC3)ccc3ccccc23)C(=O)N1` [Compound I-16], the IC50 came to 7.04 ± 1.85 µM.

The experiment is the same for the next values; noted with them: compound at a concentration of 10 μM; read-out: % inhibition of the compound against mPGES-1, Mouse enzyme.
As to `Cc1cc(C=C2C(=O)NC(=O)NC2=O)ccc1OCCCCC1CCCCC1` [Compound I-04], the inhibition at 10 µM amounted to 25%.
On to `O=C1S/C(=C\c2ccc(Oc3cc([N+](=O)[O-])c([N+](=O)[O-])cc3F)c([N+](=O)[O-])c2)C(=O)N1CCCCC1CCCCC1` [IV-01], for which the inhibition at 10 µM was determined as 91%.
The same measure, in the same setting: as for `CN1C(=O)C(=Cc2ccc(OCCCCC3CCCCC3)c([N+](=O)[O-])c2)C(=O)N(C)C1=O` [Compound I-20], the figure is 15%.
Regarding `CCCCCCOc1ccc(-c2nn(-c3ccc(Cl)cc3)cc2/C=C2\SC(=O)N(CC(=O)O)C2=O)cc1` [VII-11], the inhibition at 10 µM turned out to be 37%.
Still for that read-out and setting: as for `CN1C(=O)C(=Cc2ccc(OCCCC3CCCCC3)c([N+](=O)[O-])c2)C(=O)N(C)C1=O` [Compound I-29], the figure is 41%; as for `O=C1NC(=O)/C(=C2/C(=O)N(CCCC3CCCCC3)c3ccccc32)S1` [II-28], 0%; as for `O=C(O)CN1C(=O)S/C(=C2\C(=O)N(CCC3CCCCC3)c3ccccc32)C1=O` [II-07], 39%.

A further experiment concerns the target T2, mPGES-1 (Homo sapiens, UniProt O14684).
T2 sequence (O14684 1-152): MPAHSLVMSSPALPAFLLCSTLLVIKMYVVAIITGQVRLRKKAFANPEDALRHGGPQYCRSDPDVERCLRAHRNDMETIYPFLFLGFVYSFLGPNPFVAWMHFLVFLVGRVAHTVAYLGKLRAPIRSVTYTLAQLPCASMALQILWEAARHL
The experiment can be described thus: mPGES-1 enzyme activity assay (PGE2 enzyme immunoassay), human enzyme. Conditions: IC50 against mPGES-1, Human enzyme, recombinant microsomal enzyme; means ± SD, triplicate. The experiment is classed as biochemical. The arrangement: made in house; host or cells: FreeStyle 293-F cells, crude microsomal preparation. In short, it runs like this: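 Crude microsomal enzyme from transfected FreeStyle 293-F cells, preincubated 15 min at room temperature with compound in phosphate pH 7.2 with GSH. Reaction started with 1 μM PGH2, stopped after 30 s with SnCl2; non-enzymatic background without enzyme. PGE2 by enzyme immunoassay; IC50 computed.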
For the compound `Cc1cc(C=C2C(=O)NC(=O)NC2=O)ccc1OCCCCC1CCCCC1` [Compound I-04], the 50% inhibitory concentration (IC50) was determined as 0.082 ± 0.01 µM.
In the case of `COc1cc(C=C2C(=O)NC(=O)NC2=O)cc(Br)c1OCCCCC1CCCCC1` [Compound I-10], the IC50 was determined as 0.069 ± 0.016 µM.
The same measure, in the same setting: with `CCOc1cc(C=C2C(=O)NC(=O)NC2=O)ccc1OCCCCC1CCCCC1` [Compound I-07] the figure was 0.186 ± 0.026 µM; with `CN1C(=O)C(=Cc2ccc(OCCCCC3CCCCC3)c([N+](=O)[O-])c2)C(=O)N(C)C1=O` [Compound I-20], 0.561 ± 0.055 µM; with `O=C1NC(=O)C(=Cc2cc(I)ccc2OCCCCC2CCCCC2)C(=O)N1` [Compound I-15], 0.135 ± 0.018 µM.
As for `CN1C(=O)C(=Cc2ccc(OCCCC3CCCCC3)c([N+](=O)[O-])c2)C(=O)N(C)C1=O` [Compound I-29], the IC50 turned out to be 0.188 ± 0.021 µM.
As to `CCCCCOc1ccc(C=C2C(=O)NC(=O)NC2=O)cc1[N+](=O)[O-]` [Compound I-39], the IC50 is 0.46 ± 0.064 µM.
For the compound `CCCCCCCCOc1ccc(-c2nn(-c3ccccc3)cc2C=C2C(=O)NC(=S)NC2=O)cc1` [VI-14], the IC50 was 0.113 ± 0.023 µM.
For the compound `O=C1NC(=O)C(Cc2ccc(OCCCCC3CCCCC3)c(Cl)c2)C(=O)N1` [Compound I-42], the IC50 amounted to 0.133 ± 0.02 µM.
Consider `O=C1NC(=O)C(=Cc2ccc(OCCCCC3CCCCC3)c(O)c2)C(=O)N1` [Compound I-05], for which the 50% inhibitory concentration (IC50) turned out to be 0.116 ± 0.017 µM.
As to `O=C1NC(=O)C(=Cc2ccc(OCCCC3CCCCC3)c([N+](=O)[O-])c2)C(=O)N1` [Compound I-32], the half-inhibitory concentration (IC50) was determined as 0.073 ± 0.012 µM.
The same measure, in the same setting: as for `COc1ccc(C=C2C(=O)NC(=O)NC2=O)cc1OCCCCC1CCCCC1` [Compound I-12], the figure is 0.152 ± 0.053 µM; as for `O=C1NC(=O)C(=Cc2c(OCCCCC3CCCCC3)ccc3ccccc23)C(=O)N1` [Compound I-16], 0.154 ± 0.018 µM.

Still in this experiment, the particulars now being: recombinant microsomal enzyme; means ± SD, triplicate; read-out: IC50 against mPGES-1, Human enzyme.
`O=C1S/C(=C\c2ccc(Oc3cc([N+](=O)[O-])c([N+](=O)[O-])cc3F)c([N+](=O)[O-])c2)C(=O)N1CCCCC1CCCCC1` [IV-01]: the half-maximal inhibitory concentration (IC50) turned out to be 0.296 ± 0.048 µM.
On to `CCCCCCCCOc1ccc(-c2nn(-c3ccc(Cl)cc3)cc2C=C2C(=O)NC(=O)NC2=O)cc1` [VI-06], for which the half-inhibitory concentration (IC50) was 0.361 ± 0.051 µM.
On the same count and under the same terms, with `CCCCCCOc1ccc(-c2nn(-c3ccc(Cl)cc3)cc2C=C2C(=O)NC(=S)NC2=O)cc1` [VI-13] the figure was 0.052 ± 0.015 µM; with `CCCCOc1ccc(-c2nn(-c3ccccc3)cc2C=C2C(=O)NC(=S)NC2=O)cc1` [VI-11], 0.092 ± 0.02 µM; with `CCCCCCOc1ccc(-c2nn(-c3ccc(Cl)cc3)cc2/C=C2\SC(=O)N(CC(=O)O)C2=O)cc1` [VII-11], 0.036 ± 0.011 µM.
On to `CCCCOc1ccc(-c2nn(-c3ccccc3)cc2C=C2C(=O)NC(=O)NC2=O)cc1` [VI-02], for which the IC50 is 0.212 ± 0.034 µM.
The same measure, in the same setting: as for `O=C1NC(=O)/C(=C2/C(=O)N(CCCC3CCCCC3)c3ccccc32)S1` [II-28], the figure is 1.39 ± 0.273 µM.
With `O=C(O)CN1C(=O)S/C(=C2\C(=O)N(CCC3CCCCC3)c3ccccc32)C1=O` [II-07], the IC50 came to 0.494 ± 0.032 µM.

(Values after US12030877B2, “Prostaglandin E synthase inhibitors and methods for utilizing the same” (University of Kentucky Research Foundation, priority 2016, dated 2024).)
